The subject of one series is old mice. The note with it: chronic low dose, 3 mg per kg bodyweight per day; cited from earlier work.
A further series relates to C57BL6 mice. Kind of series: Y-maze Test of MK-801 induced cognitive decline. Type of series: in vivo. The note with it: N=12 per group, random = 33%. The method, then:
The effect of pomegranate-CBD based formulation with a 12:1 pomegranate to CBD ratio on cognitive decline was further evaluated in C57BL6 mice. The cognitive decline of the mice was achieved using MK-801 and the cognitive ability of the mice were tested using the Y-maze Test. The experiment included three groups of mice, neutral control (N=12), MK-801 (N=12), MK-801 Pomegranate-CBD treated (N=12).

Another series concerns the target alfa-synuclein (Homo sapiens, UniProt P37840). The note with it: in vitro; cited from earlier work.
The test system of series [1] is Drosophila model of Parkinson's Disease. The note with it: fly feeding, 75 mM in medium; cited from earlier work.
Series [2] relates to mThyl-human alpha-synuclein transgenic mouse model. The note with it: 1 g/kg/day interperitoneally; cited from earlier work.
For series [3], the system named is Parkinson's disease patients. The note with it: 18 g per day oral, cited from earlier work.

The values below come from patent publication US20250032411A1, “A SELF-EMULSIFYING DRUG DELIVERY SYSTEM (SEDDS) OF PUNICIC ACID COMBINED WITH NEUROPROTECTIVE NATURAL PRODUCTS TO DELAY ONSET, PREVENT, OR REVERSE NEURODEGENERATIVE DISEASE” (TAHIRO INC., priority 2021, published 2025).

With `CCCCCc1cc(O)c2c(c1)OC(C)(C)[C@@H]1CCC(C)=C[C@@H]21` [THC, Δ9-tetrahydrocannabinol], the cognitive function entry in the series with old mice is reported as “restores cognitive function in old mice”.
Turning to `C[C@]12N[C@H](Cc3ccccc31)c1ccccc12` [MK-801], the “% of entries in the novel arm of the Y-maze” value in the series with C57BL6 mice is 31.8%.
With `OC[C@@H](O)[C@@H](O)[C@H](O)[C@H](O)CO` [Mannitol], the “aggregation process of alfa-synuclein” value on alfa-synuclein is “interfere with the aggregation process of alfa-synuclein”. Moreover, in series [1], the “alpha-synuclein aggregates in the brains” value is listed as “reduced the amount of alpha-synuclein aggregates” and the behavioral defects entry is given as “dramatically corrected behavioral defects”. Besides, the “alpha-synuclein accumulation in brain regions” value in series [2] is listed as “a decrease in alpha-synuclein accumulation was detected in several brain regions”. Also, the “patients who tolerate the maximal dose” value in series [3] (36 weeks) was “only two thirds of patients tolerate this maximal dose”. In addition, the “safety of long-term use” value in series [3] was “safe”.
